From article PMC4817154 (Scientific Reports, 2016)
Values joined by “and” are separate entries in the source; they are usually repeats but may differ in a detail not shown here. Equal entries are not always repeated.

Columns and labels:
NCCc1c[nH]c2ccc(O)cc12 = experiment: cells, lysate or membranes; settings: [3H]5-HT transport, T-REx-293 cells, average ± SEM, pH 7.4
dmSERT-P488T [1] = target: T1, dmSERT-P488T (Drosophila melanogaster, UniProt P51905, P488T); experiment: cell-based
T1 construct: expressed in transfected cells; host or cells: T-REx-293

dmSERT-WT = target: T2, dmSERT-WT (Drosophila melanogaster, UniProt P51905); experiment: Paroxetine inhibition of [3H]5-HT transport; type: cell-based
T2 construct: expressed in transfected cells; host or cells: T-REx-293
T2 sequence (P51905 1-622): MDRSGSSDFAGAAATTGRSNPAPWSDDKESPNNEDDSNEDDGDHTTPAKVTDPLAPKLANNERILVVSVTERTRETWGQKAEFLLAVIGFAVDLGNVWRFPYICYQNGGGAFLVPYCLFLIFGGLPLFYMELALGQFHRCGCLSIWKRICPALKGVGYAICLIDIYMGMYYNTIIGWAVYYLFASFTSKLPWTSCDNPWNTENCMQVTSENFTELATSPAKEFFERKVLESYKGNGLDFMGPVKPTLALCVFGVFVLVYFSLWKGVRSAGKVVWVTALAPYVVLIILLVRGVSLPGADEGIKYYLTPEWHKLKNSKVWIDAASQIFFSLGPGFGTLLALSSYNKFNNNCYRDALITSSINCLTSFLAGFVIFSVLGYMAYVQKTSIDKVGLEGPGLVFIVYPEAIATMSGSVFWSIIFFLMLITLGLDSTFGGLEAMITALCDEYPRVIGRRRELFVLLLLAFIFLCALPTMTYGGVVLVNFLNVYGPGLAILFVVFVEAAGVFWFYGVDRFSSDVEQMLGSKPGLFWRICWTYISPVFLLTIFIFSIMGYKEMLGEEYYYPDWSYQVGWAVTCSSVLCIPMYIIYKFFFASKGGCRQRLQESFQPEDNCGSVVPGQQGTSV

ggSERT = target: ggSERT; set-up: method as in PMID 15271993; settings: read-out: published paroxetine Ki for inhibition of [3H]5-HT uptake; cited from earlier work
dmSERT-D164A [2] = target: T3, dmSERT-D164A (Drosophila melanogaster, UniProt P51905, D164A); experiment: cell-based
T3 construct: expressed in transfected cells; host or cells: T-REx-293

dmSERT-N484E [3] = target: T4, dmSERT-N484E (Drosophila melanogaster, UniProt P51905, N484E); experiment: cell-based
T4 construct: expressed in transfected cells; host or cells: T-REx-293

dmSERT-G168A [4] = target: T5, dmSERT-G168A (Drosophila melanogaster, UniProt P51905, G168A); experiment: cell-based
T5 construct: expressed in transfected cells; host or cells: T-REx-293

dmSERT = target: dmSERT; set-up: method as in PMID 8197200, PMID 9677366; settings: read-out: published paroxetine Ki for inhibition of [3H]5-HT uptake; cited from earlier work
LeuBAT-Δ13 = LeuBAT-Δ13 construct; cited from earlier work
dmSERT-M167I [5] = target: T6, dmSERT-M167I (Drosophila melanogaster, UniProt P51905, M167I); experiment: cell-based
T6 construct: expressed in transfected cells; host or cells: T-REx-293

dmSERT-I492V [6] = target: T7, dmSERT-I492V (Drosophila melanogaster, UniProt P51905, I492V); experiment: cell-based
T7 construct: expressed in transfected cells; host or cells: T-REx-293

dmSERT-F90Y [7] = target: T8, dmSERT-F90Y (Drosophila melanogaster, UniProt P51905, F90Y); experiment: cell-based
T8 construct: expressed in transfected cells; host or cells: T-REx-293

dmSERT-M167I [8] = target: T6, dmSERT-M167I; type: cell-based
dmSERT-F90Y [9] = target: T8, dmSERT-F90Y; type: cell-based
dmSERT-P488T [10] = target: T1, dmSERT-P488T; type: cell-based
ggSERT-WT = ggSERT-WT (Gallus gallus, UniProt Q6PWI2); experiment: Steady-state kinetics of [3H]5-HT transport; type: cell-based, chicken (Gallus gallus)
Source text: (§1) Control cells were transfected with empty vector.

dmSERT-D164A [11] = target: T3, dmSERT-D164A; type: cell-based
dmSERT-N484E [12] = target: T4, dmSERT-N484E; type: cell-based
dmSERT-G168A [13] = target: T5, dmSERT-G168A; type: cell-based
dmSERT-I492V [14] = target: T7, dmSERT-I492V; type: cell-based
hsSERT-Y95F = hsSERT-Y95F (Homo sapiens, UniProt P31645, Y95F); settings: cited from earlier work
[15] = substrate: NCCc1c[nH]c2ccc(O)cc12; experiment: cells, lysate or membranes; type: cell-based, chicken (Gallus gallus); settings: [3H]5-HT transport, T-REx-293 cells, average ± SEM, pH 7.4
Source text: as §1

dmSERT-D164A (Drosophila melanogaster; D164A)
Km (NCCc1c[nH]c2ccc(O)cc12; other: dmSERT-D164A): 10,258 ± 756 nM
Vmax (NCCc1c[nH]c2ccc(O)cc12; other: dmSERT-D164A): 87.9 ± 6.8 pmol/min/mg total cell protein

Fc1ccc([C@@H]2CCNC[C@H]2COc2ccc3c(c2)OCO3)cc1 [Paroxetine, (3S,4R)-3-[(2H-1,3-benzodioxol-5-yloxy)methyl]-4-(4-fluorophenyl)piperidine]
IC50 (dmSERT-P488T [1]): 20.5 ± 1.86 nM
Ki (dmSERT-P488T [1]): 20.3 ± 1.85 nM
IC50 (dmSERT-WT): 6.1 ± 1.35 nM
Ki (dmSERT-WT; Ki, dmSERT-WT, from IC50 and Km via Cheng-Prusoff): 6.04 ± 1.33 nM
Ki (ggSERT): 397 nM
IC50 (dmSERT-D164A [2]): 0.86 ± 0.07 nM
Ki (dmSERT-D164A [2]; Ki, dmSERT-D164A, from IC50 and Km via Cheng-Prusoff): 0.9 nM and 0.86 nM
IC50 (dmSERT-N484E [3]): 1.9 ± 0.22 nM
Ki (dmSERT-N484E [3]): 1.83 ± 0.21 nM
IC50 (dmSERT-G168A [4]): 2.8 ± 0.66 nM
Ki (dmSERT-G168A [4]): 2.78 ± 0.66 nM
Ki (dmSERT): 3.4 nM
Kd (LeuBAT-Δ13): ~430 nM
IC50 (dmSERT-M167I [5]): 2.71 ± 0.29 nM
Ki (dmSERT-M167I [5]): 2.68 ± 0.29 nM
IC50 (dmSERT-I492V [6]): 16.3 ± 1.2 nM
Ki (dmSERT-I492V [6]): 16.2 ± 1.2 nM
IC50 (dmSERT-F90Y [7]): 5.31 ± 0.94 nM
Ki (dmSERT-F90Y [7]): 5.26 ± 0.93 nM

NCCc1c[nH]c2ccc(O)cc12 [5-HT, 5-hydroxytryptamine]
% wt Vmax (dmSERT-M167I [8]): 79.9 ± 22.1%
% wt Vmax (dmSERT-F90Y [9]): 109.7 ± 4.2%
% wt Vmax (dmSERT-P488T [10]): 15.1 ± 0.3%
% wt Vmax (ggSERT-WT): 100 ± 9.6%
% wt Vmax (dmSERT-D164A [11]): 136.0 ± 10.6%
% wt Vmax (dmSERT-N484E [12]): 8.0 ± 1.8%
% wt Vmax (dmSERT-G168A [13]): 330.3 ± 61.7%
% wt Vmax (dmSERT-I492V [14]): 89.8 ± 8.8%

dmSERT-G168A (Drosophila melanogaster; G168A)
Km (NCCc1c[nH]c2ccc(O)cc12; other: dmSERT-G168A): 3,342 ± 272 nM
Vmax (NCCc1c[nH]c2ccc(O)cc12; other: dmSERT-G168A): 213.4 ± 39.9 pmol/min/mg total cell protein

dmSERT-F90Y (Drosophila melanogaster; F90Y)
Km (NCCc1c[nH]c2ccc(O)cc12; other: dmSERT-F90Y): 1,784 ± 121 nM
Vmax (NCCc1c[nH]c2ccc(O)cc12; other: dmSERT-F90Y): 70.9 ± 2.7 pmol/min/mg total cell protein

OC1(c2ccc(Cl)cc2)c2ccccc2C2=NCCN21 (stereo not drawn) [mazindol]
change in potency (hsSERT-Y95F): increase

dmSERT-P488T (Drosophila melanogaster; P488T)
Km (NCCc1c[nH]c2ccc(O)cc12; other: dmSERT-P488T): 2,737 ± 277 nM
Vmax (NCCc1c[nH]c2ccc(O)cc12; other: dmSERT-P488T): 9.8 ± 0.2 pmol/min/mg total cell protein

dmSERT-M167I (Drosophila melanogaster; M167I)
Km (NCCc1c[nH]c2ccc(O)cc12; other: dmSERT-M167I): 1,487 ± 132 nM
Vmax (NCCc1c[nH]c2ccc(O)cc12; other: dmSERT-M167I): 51.6 ± 14.3 pmol/min/mg total cell protein

dmSERT-I492V (Drosophila melanogaster; I492V)
Km (NCCc1c[nH]c2ccc(O)cc12; other: dmSERT-I492V): 3,281 ± 357 nM
Vmax (NCCc1c[nH]c2ccc(O)cc12; other: dmSERT-I492V): 58.0 ± 5.7 pmol/min/mg total cell protein

dmSERT-N484E (Drosophila melanogaster; N484E)
Km (NCCc1c[nH]c2ccc(O)cc12; other: dmSERT-N484E): 522 ± 67 nM
Vmax (NCCc1c[nH]c2ccc(O)cc12; other: dmSERT-N484E): 5.2 ± 1.2 pmol/min/mg total cell protein

B1: ggSERT-WT (Gallus gallus) (protein)
chain: MENKATSNETQPLTSKKGISDCNEGEDCKENGLLIRNPKSALRLVDDGNKVHPGQGDKEEAAQISNGYSGVQSSGPCSGMGEAEDAQCTAPAATTTTTTTTSTTCGAEGQQQLMELGDRETWSKKIDFLLSVIGYAVDLGNVWRFPYICYQNGGGAFLIPYTIMAIFGGIPLFYMELALGQYHRNGCISIWRKICPIFKGIGFAICIIDLYVASYYNTIMAWVFYYLVSSFTTELPWTSCNNAWNTGNCTTYFSKDNISWALHSISPAEEFYTRQVLQVHRSNGLDDLGGISWQLTLCLLLIFIIVYFSIWKGVKTSGKVVWVTATFPYVILFILLVRGATLPGAWRGVLYYLKPEWQKLLATEVWVDAAAQIFFSLGPGFGVLLAYASYNKFHNNCYQDALVTSTVNCLTSFVSGFVIFTVLGYMAEMRNEDVSEVAKDMGPSLLFITYAEAIANMPASTFFAIIFFLMLLTLGLDSTFAGLEGVITGVLDEFPHVWSKRREFFVLGLIIICFLGSLATLTFGGAYVVKLFEEYATGPAVLTVVFLEAVAVAWFYGITQFCNDVKEMLGFAPGWYWRVCWVAISPIFLLFVTCSFLSNPPELRLFDYNYPYWTTVVGYCIGTSSIICIPIYMAYRLIITPGTLKERILKSITPETATEIPFGDIRMNAV
Vmax ([15]; other: ggSERT-WT): 18.4 ± 1.8 pmol/min/mg total cell protein

B2: ggSERT-D209A (Gallus gallus; D209A) (protein)
chain: MENKATSNETQPLTSKKGISDCNEGEDCKENGLLIRNPKSALRLVDDGNKVHPGQGDKEEAAQISNGYSGVQSSGPCSGMGEAEDAQCTAPAATTTTTTTTSTTCGAEGQQQLMELGDRETWSKKIDFLLSVIGYAVDLGNVWRFPYICYQNGGGAFLIPYTIMAIFGGIPLFYMELALGQYHRNGCISIWRKICPIFKGIGFAICIIALYVASYYNTIMAWVFYYLVSSFTTELPWTSCNNAWNTGNCTTYFSKDNISWALHSISPAEEFYTRQVLQVHRSNGLDDLGGISWQLTLCLLLIFIIVYFSIWKGVKTSGKVVWVTATFPYVILFILLVRGATLPGAWRGVLYYLKPEWQKLLATEVWVDAAAQIFFSLGPGFGVLLAYASYNKFHNNCYQDALVTSTVNCLTSFVSGFVIFTVLGYMAEMRNEDVSEVAKDMGPSLLFITYAEAIANMPASTFFAIIFFLMLLTLGLDSTFAGLEGVITGVLDEFPHVWSKRREFFVLGLIIICFLGSLATLTFGGAYVVKLFEEYATGPAVLTVVFLEAVAVAWFYGITQFCNDVKEMLGFAPGWYWRVCWVAISPIFLLFVTCSFLSNPPELRLFDYNYPYWTTVVGYCIGTSSIICIPIYMAYRLIITPGTLKERILKSITPETATEIPFGDIRMNAV
Km ([15]; other: ggSERT-D209A): 0.971 ± 0.071 µM
Vmax ([15]; other: ggSERT-D209A): 73.8 ± 21.5 pmol/min/mg total cell protein
